Test system: bladder cancer
Assay: 3D clonogenic assay, Example 1, bladder cancer
Type: cell-based
Conditions: n=9 models
Experimental: In the present study, plinabulin was characterized for its ability to inhibit anchorage independent growth and ex vivo colony formation of tumor cells in semi-solid medium. The compound was investigated in 87 out of 93 originally planned tumor xenografts representing all major cancer types using a 3D clonogenic assay in a 96-well format with colony count based on image analysis as read-out. By using this assay, the investigational compound was assessed for the ability to inhibit anchorage independent growth and ex vivo colony formation of tumor cells in semi-solid medium.
A master stock solution of plinabulin was prepared by dissolving the compound in DMSO at a concentration of 9.9 mM. Working stock solutions were prepared by diluting the master stock solution with DMSO to a concentration of 0.99 mM (330-fold the highest test concentration). Small aliquots of the master and working stock were stored at −20° C. […]
Plinabulin was investigated in 87 PDX models representing a number of cancer types. […] The percentage of viable cells was determined in a Neubauer-hemocytometer using trypan blue exclusion. […]
The clonogenic assay was carried out in a 96 well plate format using ultra low attachment plates. […] Cultures were incubated at 37° C. and 7.5% CO2 in a humidified atmosphere 13 days in total and monitored closely for colony growth using an inverted microscope. […]

CC(C)(C)c1[nH]cnc1/C=c1\[nH]c(=O)/c(=C/c2ccccc2)[nH]c1=O [plinabulin, (3Z,6Z)-3-Benzylidene-6-{[5-(2-methyl-2-propanyl)-1H-imidazol-4-yl]methylene}-2,5-piperazinedione]
geom. mean absolute IC70: 0.038 µM

From patent publication US20240408082A1, “METHODS FOR TREATING CANCERS AND TUMORS” (BEYONDSPRING PHARMACEUTICALS, INC., priority 2021, published 2024)
